Assay results taken from patent US20100303896A1, “5BETA, 14BETA-ANDROSTANE DERIVATIVES USEFUL FOR THE TREATMENT OF RESTENOSIS AFTER ANGIOPLASTIC OR ENDOARTHERECTOMY AND DISEASES DUE TO ORGAN FIBROSIS” (SIGMA-TAU INDUSTRIE FARMACEUTICHE RIUNITE S.P.A., priority 2007, published 2010).
Where “and” joins values, the source holds several entries; their conditions need not be identical. Identical values can stand only once. Entries after “also recorded” stand apart in the source; their conditions may differ.

Legend:
Type in all cases: in vivo, rat
[1] = system: spontaneous hypertensive MHS rats; assay: Prevention of restenosis after carotid surgical injury (endoartherectomy model), morphometry of the carotid lumen area
Description: To test the activity of the compound of the invention for the prevention of restenosis after endoartherectomy, spontaneous hypertensive MHS rats with genetic arterial hypertension (Bianchi G., Barber B. R., Torielli L., Ferrari P. The Milan hypertensive strain of rats. Genetic Model of Hypertension. 1994; 22: 457-460) were used. MHS rats are available at Prassis Research Institute, Sigma-tau, Italy.
After this period rats were subjected to the vascular surgical injury according to the protocol listed below. After surgical injury, rats were maintained under treatment either with vehicle or Rostafuroxin for further 30 days and then sacrificed for carotid artery sampling. […] The final number of rats used for the histological carotid analysis was; MHS vehicle=7, MHS Rostafuroxin=9.
(§1) The carotid surgical injury model used on MHS and MNS rat is described in J. Cell. Physiol. 2001; 186:307-313.
(§2) Briefly, a plastic Scanlon clamp for coronary artery bypass grafting was placed for 10 seconds on the carotid artery in order to cause a crushing lesion to vessel. At the same point where the clamp was applied, a 0.5 mm longitudinal incision was performed on the full thickness of the carotid artery. […] Hemostasis was obtained with a single adventitial 8.0-gauge polypropylene stitch. Once bleeding stopped, the carotid artery was carefully examined and blood pulsation was checked distally to the incision.
Carotid arteries were taken 30 days after injury. […]
(§3) For each injured carotid, at least 60 serial cross-sections were observed under a light microscope at 20× magnification; image screening and photography were performed using Leica IM 1000 System (Leica, Wetzlar, Germany). The sections of injured carotids showing maximal remodelling and proliferative phenomena were identified and further analyzed.
(§4) Lumen and medial areas were measured using the Leica IM 1000 software (Leica, Heerbrugg, Switzerland). […] For each contralateral uninjured carotid, at least 10 sections were analyzed and the average media and lumen areas were calculated. […]

[2] = system: MNS rats without arterial hypertension; assay: Prevention of restenosis after carotid surgical injury, morphometry of the carotid lumen area; conditions: 100 μg/kg orally, carotid taken 30 days after injury
Procedure: as §1, §2
Carotid arteries were taken 30 days after injury. Rats were anaesthetized and carotids were dissected free from the surrounding tissues. […]
as §3, §4

[3] = system: MHS rats with CCl4-induced liver fibrosis; assay: CCl4-induced liver fibrosis: body and organ weights
Description: (§5) To test the activity of the compound of the invention for the prevention and treatment of organ fibrosis, spontaneous hypertensive MHS rats with genetic arterial hypertension (Bianchi G., Barber B. R., Torielli L., Ferrari P. The Milan hypertensive strain of rats. Genetic Model of Hypertension. 1994; 22: 457-460) were used. MHS rats are available at Prassis Research Institute, Sigma-tau, Italy.
(§6) Liver fibrosis was induced by CCl4 oral administration as described in J. Hepatol. 1999; 30: 621-631, with minor modifications: 0.375 ml/kg of CCl4 dissolved in olive oil was administered three times per week for three weeks by oral gavage to rats starting from the 7th week after weaning. Control rats received only the vehicle (olive oil). Rostafuroxin treatment started 7 weeks before the induction of liver fibrosis by CCl4 administration (pretreatment) and was continued during the CCl4 treatment for three weeks. Rostafuroxin was orally administered at 1 mg/kg/day, suspended in Methocel (0.5%). A total of twenty four MHS rats of 25 days of age (weaning) were subdivided in three groups of 8 rats each: the first group, considered as negative control for liver fibrosis induction (Ctr.), was orally treated with the Rostafuroxin vehicle (Methocel 0.5%) along the entire period (10 weeks) and received the olive oil as vehicle of CCl4 at the 7th week after weaning for three weeks; the second group, considered as positive control for liver fibrosis (Ctr. LF), was orally treated with the Rostafuroxin vehicle (Methocel 0.5%) along the entire period (10 weeks) and received CCl4 at the 7th week after weaning for three weeks; the third group, Rostafuroxin treated with liver fibrosis (RLF), received Rostafuroxin at 1 mg/kg along the entire period (10 weeks) and received CCl4 at the 7th week after weaning for three weeks. At the end of the treatment (10th week), rats were weighed and anaesthetized with pentobarbital for blood sampling and organ removal. The blood was let clotted and serum separated after centrifugation and saved for measurement of serum albuminemia and transaminases (ALT and AST) on a Pentra 400 (ABX) Automatic Hematology Analyzer. Spleen and liver were removed and weighed. Samples of the liver median lobe were immediately frozen in liquid nitrogen and kept at −80° for further biochemical measurement of the 4-Hydroxiproline liver content, taken as an index of collagen deposition (Biochem. J. 1961; 80(1): 148-154). The rest of the liver was preserved in a 10% buffered formalin solution for the histological analysis.

[4] = system: MHS rats with CCl4-induced liver fibrosis; assay: CCl4-induced liver fibrosis: serum albuminemia and transaminases (ALT and AST)
Description: as §5, §6

[5] = system: MHS rats with CCl4-induced liver fibrosis; assay: CCl4-induced liver fibrosis: hydroxyproline liver content
Description: as §5
as §6, with “At the end of the treatment (10th week), rats were weighed and anaesthetized with pentobarbital for blood sampling and organ removal. The blood was let clotted and serum separated after centrifugation and saved for measurement of serum albuminemia and transaminases (ALT and AST) on a Pentra 400 (ABX) Automatic Hematology Analyzer. Spleen and liver were removed and weighed. Samples of the liver median lobe were immediately frozen in liquid nitrogen and kept at −80° for further biochemical measurement of the 4-Hydroxiproline liver content, taken as an index of collagen deposition (Biochem. J. 1961; 80(1): 148-154). The rest of the liver was preserved in a 10% buffered formalin solution for the histological analysis.” left out
Hydroxyproline liver content was determined as described in Anal. Biochem. 1981; 112: 70-75, with slight modifications.
Liver tissue (0.4 g) was homogenized in 3 ml 6 N HCl and hydrolyzed at 110° C. for 24 h. […] After cooling, the absorbance was measured at 558 nm (Jasco V-530).

[6] = system: MHS rats with CCl4-induced liver fibrosis; assay: CCl4-induced liver fibrosis: histopathology and qualitative fibrosis score on Syrius red stained slides; parameters: key to Liver fibrosis score, histological appearance (FIG. 8): 0: Absence of liver fibrosis, but normal staining pattern only; 1: Mild degree, corresponding to centrilobular/periportal fibrosis, with predominantly uncomplete septal expansion—mild focal interstitial fibrosis; 2: Moderate degree, corresponding to diffuse bridging fibrosis, with focal nodular appearance—multifocal interstitial fibrosis; 3: Severe degree, corresponding to confluent fibrosis, with diffuse nodular appearance—severe diffuse interstitial fibrosis
Description: as §5, §6
For each case, the median and the left lobes of the liver were subjected to standard trimming and embedding procedures; slides were stained with Hematoxylin and Eosin (H&E) (Laboratory Methods in Histotechnology; Armed Forces Institute of Pathology Published by the American Registry of Pathology Washington, D.C. 1992). Special techniques were also applied in order to allow proper connective tissue detection (Masson's Trichrome stain—Laboratory Methods in Histotechnology; Armed Forces Institute of Pathology Published by the American Registry of Pathology Washington, D.C. 1992) as well as specific collagen detection and hepatic fibrosis evaluation (Syrius red staining method as described in The Journal of Histochemistry and Citochemistry 1985; vol 33, No. 8, pp. 737-743).
Liver fibrosis was qualitatively scored on Syrius red stained slides as follows:
0=Absence of liver fibrosis, but normal staining pattern only;
1=Mild degree, corresponding to centrilobular/periportal fibrosis, with predominantly uncomplete septal expansion—mild focal interstitial fibrosis;
2=Moderate degree, corresponding to diffuse bridging fibrosis, with focal nodular appearance—multifocal interstitial fibrosis;
3=Severe degree, corresponding to confluent fibrosis,
with diffuse nodular appearance—severe diffuse interstitial fibrosis. […]

[7] = system: MHS rats with CCl4-induced liver fibrosis; assay: CCl4-induced liver fibrosis: quantitative histomorphometric analysis of fibrotic area (Sirius Red, ImageJ)
Description: as §5
Liver fibrosis was induced by CCl4 oral administration as described in J. Hepatol. 1999; 30: 621-631, with minor modifications: 0.375 ml/kg of CCl4 dissolved in olive oil was administered three times per week for three weeks by oral gavage to rats starting from the 7th week after weaning. Control rats received only the vehicle (olive oil). Rostafuroxin treatment started 7 weeks before the induction of liver fibrosis by CCl4 administration (pretreatment) and was continued during the CCl4 treatment for three weeks. Rostafuroxin was orally administered at 1 mg/kg/day, suspended in Methocel (0.5%). […]
A quantitative analysis of the degree of fibrosis, following the histological qualitative analysis, was performed by digital imaging conversion of the histological pictures by a previously described method (J. Gastroenterol. 2004, Oct. 1; 10(19)2894-2897).
Briefly, after staining with Sirius Red, liver collagen content was measured by histomorphometric method. […] Each picture was analyzed by computer system ImageJ version 1.39 for digital image analysis. […] The fibrotic area with positive staining were automatically selected, outlined and evaluated. Relative content of collagen was calculated as a percentage of positive staining pixels on the total number of pixels of the picture.

[8] = RLF group, 1 mg/kg os for 10 weeks + CCl4, individual rats, 1 mg/kg
[9] = rats with CCl4-induced liver fibrosis, 1 mg/kg os
[10] = rats with CCl4-induced liver fibrosis, vs Ctr. LF, statistically significant

Structure (SMILES): C[C@]12CC[C@H](O)C[C@H]1CC[C@@H]1[C@@H]2CC[C@]2(C)[C@@](O)(c3ccoc3)CC[C@]12O [Rostafuroxin, 17 beta-(3-Furyl)-5 beta-androstane-3beta, 14 beta, 17 alpha-triol]
- Change in arterial restenosis vs vehicle ([1]; MHS rats with arterial hypertension, vs vehicle, statistically significant): −45%
- Carotid lumen area, Injured/Uninjured carotid ratio, mean ([1]; MHS rats, 100 μg/kg orally, carotid taken 30 days after injury, group mean (n=9), vehicle mean 0.379): 0.680
- Carotid lumen area, Injured/Uninjured carotid ratio ([1]; MHS rats, 100 μg/kg orally, carotid taken 30 days after injury, individual animals): 0.86 and 0.83 and 0.81 and 0.66 and 0.54 and 0.36 and 0.25 and 0.90 and 0.89
- Carotid lumen area, Injured/Uninjured carotid ratio, mean ([2]; group mean (n=10), vehicle mean 0.540): 0.765
- Carotid lumen area, Injured/Uninjured carotid ratio ([2]; individual animals): 0.93 and 0.83 and 0.80 and 0.76 and 0.75 and 0.68 and 0.59 and 0.36 and 1.00 and 0.95
- Spleen/bw, mean ([3]; RLF group, 1 mg/kg os for 10 weeks + CCl4, group mean (n=8), Ctr. LF mean 0.355): 0.284%
- Spleen/bw [3, 8]: 0.251% and 0.316% and 0.261% and 0.262% and 0.247% and 0.302% and 0.348% and 0.288%
- Weight of the liver [3, 9]: not modified
- Reduction of spleen weight [3, 10]: 20%
- Albumin, mean ([4]; RLF group, 1 mg/kg os for 10 weeks + CCl4, group mean (n=8), Ctr. LF mean 3.02): 3.53 g/dL
- Albumin [4, 8]: 3.65 g/dL and 3.36 g/dL and 4.15 g/dL and 2.95 g/dL and 3.19 g/dL and 3.07 g/dL and 3.82 g/dL and 4.04 g/dL
- Transaminases (ALT and AST) [4, 9]: not modified
- Increase of plasma levels of albumin [4, 10]: 16.8%
- Liver hydroxyproline, mean ([5]; RLF group, 1 mg/kg os for 10 weeks + CCl4, group mean (n=8), Ctr. LF mean 1596.45): 1184.9 μg/g prot
- Liver hydroxyproline [5, 8]: 886.5 μg/g prot and 791.6 μg/g prot and 1217.4 μg/g prot and 811.0 μg/g prot and 799.8 μg/g prot and 2762.3 μg/g prot and 750.0 μg/g prot and 1460.7 μg/g prot
- Reduction of liver content of hydroxyproline ([5]; rats with CCl4-induced liver fibrosis, vs Ctr. LF): 25.8%
- Extension of liver tissue damage (histopathology) ([6]; CCl4-treated rats, 1 mg/kg os, compared with Ctr. LF group, 1 mg/kg): minor extension of tissue damage; also recorded: less extended tissue damage
- Liver fibrosis Absence (score 0), % of rats ([6]; RLF group, 1 mg/kg OS + CCl4): 0%
- Liver fibrosis Absence (score 0), No. of rats ([6]; RLF group, 1 mg/kg OS + CCl4): 0/8
- Liver fibrosis Mild (score 1), % of rats ([6]; RLF group, 1 mg/kg OS + CCl4): 75%
- Liver fibrosis Mild (score 1), No. of rats ([6]; RLF group, 1 mg/kg OS + CCl4): 6/8
- Liver fibrosis Moderate (score 2), % of rats ([6]; RLF group, 1 mg/kg OS + CCl4): 25%
- Liver fibrosis Moderate (score 2), No. of rats ([6]; RLF group, 1 mg/kg OS + CCl4): 2/8
- Liver fibrosis Severe (score 3), % of rats ([6]; RLF group, 1 mg/kg OS + CCl4): 0%
- Liver fibrosis Severe (score 3), No. of rats ([6]; RLF group, 1 mg/kg OS + CCl4, 1 mg/kg): no rats and 0/8
- Liver fibrosis score, histological appearance (FIG. 8) ([6]; liver from two CCl4 rats treated at 1 mg/kg os (RLF group)): 1
- % FIBROTIC AREA, mean ([7]; RLF group, 1 mg/kg os for 10 weeks + CCl4, group mean (n=8), Ctr. LF mean 10.48): 5.50%
- % FIBROTIC AREA [7, 8]: 4.64% and 5.50% and 1.44% and 6.63% and 6.89% and 5.08% and 11.80% and 2.01%
- Reduction of liver fibrotic area [7, 10]: 47.5%
